Values quoted from earlier work in patent publication US12377108B2 (Curantis UG, priority 2018, dated 2025).

What was measured:
[1] = oral administration; first pass hepatic metabolism
[2] = of the activity of Δ9-THC

| SMILES | oral bioavailability [1] [%] | activity relative to Δ9-THC [2] [%] |
| --- | --- | --- |
| C=C(C)[C@@H]1CCC(C)=C[C@H]1c1c(O)cc(CCCCC)cc1O [CBD, Cannabidiol] | < 5 |  |
| CCCCCc1cc(O)c2c(c1)OC(C)(C)c1ccc(C)cc1-2 [CBN, Cannabinol] |  | 10 |
